From patent US20250346592A1 (Celgene Corporation, priority 2022, published 2025) come the findings set out here.

For orientation: IC50 means the point on the concentration scale where inhibition reaches its midpoint.

Each structure is given as a SMILES string.

Chain of hPAD4 enzyme (Q9UM07 whole entry): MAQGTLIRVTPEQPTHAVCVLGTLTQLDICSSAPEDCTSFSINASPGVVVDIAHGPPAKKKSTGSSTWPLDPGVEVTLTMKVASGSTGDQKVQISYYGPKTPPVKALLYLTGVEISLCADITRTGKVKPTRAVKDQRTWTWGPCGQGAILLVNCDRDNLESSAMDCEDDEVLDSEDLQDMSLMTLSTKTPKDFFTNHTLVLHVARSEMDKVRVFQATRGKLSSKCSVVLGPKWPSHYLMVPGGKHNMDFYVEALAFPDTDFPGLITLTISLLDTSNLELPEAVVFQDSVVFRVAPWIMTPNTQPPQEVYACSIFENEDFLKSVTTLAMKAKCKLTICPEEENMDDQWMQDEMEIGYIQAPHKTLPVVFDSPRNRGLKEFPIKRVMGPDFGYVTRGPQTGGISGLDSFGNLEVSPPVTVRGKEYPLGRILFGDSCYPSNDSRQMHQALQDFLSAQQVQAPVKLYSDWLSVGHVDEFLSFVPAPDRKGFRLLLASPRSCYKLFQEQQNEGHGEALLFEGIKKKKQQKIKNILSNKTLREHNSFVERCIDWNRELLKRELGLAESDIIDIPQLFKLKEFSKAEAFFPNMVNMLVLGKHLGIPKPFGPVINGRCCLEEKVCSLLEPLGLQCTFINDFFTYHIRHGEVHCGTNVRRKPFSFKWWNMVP

The assay concerns the target hPAD4 enzyme (Homo sapiens (Human), UniProt Q9UM07). As to the kind of experiment: RFMS2 assay (RapidFire mass spectrometry, TSTGGRQGSHH peptide substrate). It counts as biochemical. The settings on record: 35 nM recombinant human PAD4, 500 μM TSTGGRQGSHH peptide, 30 minutes at room temperature; read-out: RFMS 2 IC50. In a few lines: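 Recombinant human PAD4 (35 nM) with 500 μM TSTGGRQGSHH peptide in HEPES pH 7.4, 200 mM NaCl, 2 mM CaCl2, 5 mM DTT, 1.2% DMSO, 30 min at room temperature; 3-fold compound series, top 20 μM. Quenched with formic acid; substrate and citrullinated product quantified by RapidFire MRM mass spectrometry for IC50.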
Consider `COc1cccc2cc(-c3nc4cc5c(cc4n3C)CCN(C[C@H](N)CF)C5=O)n(Cc3ccns3)c12` [Example 118, (S)-6-(2-amino-3-fluoropropyl)-2-(1-(isothiazol-5-ylmethyl)-7-methoxy-1H-indol-2-yl)-1-methyl-1,6,7,8-tetrahydro-5H-imidazo[4,5-g]isoquinolin-5-one], for which the IC50 is 11 to 100 nM. For `COc1cccc2cc(-c3nc4cc5c(cc4n3C)CCN(C[C@H](N)CF)C5=O)n(Cc3ncno3)c12` [Example 120, (S)-2-(1-((1,2,4-oxadiazol-5-yl)methyl)-7-methoxy-1H-indol-2-yl)-6-(2-amino-3-fluoropropyl)-1-methyl-1,6,7,8-tetrahydro-5H-imidazo[4,5-g]isoquinolin-5-one] the value was 101 to 500 nM. In the case of `Cn1c(-c2cc3cccnc3n2Cc2ccno2)nc2cc3c(cc21)CCN(C[C@H](N)CF)C3=O` [Example 121, (S)-6-(2-amino-3-fluoropropyl)-2-(1-(isoxazol-5-ylmethyl)-1H-pyrrolo[2,3-b]pyridin-2-yl)-1-methyl-1,6,7,8-tetrahydro-5H-imidazo[4,5-g]isoquinolin-5-one], the IC50 was more than 1000 nM. The value for `COc1cccc2cc(-c3nc4cc5c(cc4n3C)CCN(C[C@H](N)CF)C5=O)n(Cc3ncc(C)o3)c12` [Example 125, (S)-6-(2-amino-3-fluoropropyl)-2-(7-methoxy-1-((5-methyloxazol-2-yl)methyl)-1H-indol-2-yl)-1-methyl-1,6,7,8-tetrahydro-5H-imidazo[4,5-g]isoquinolin-5-one] was 101 to 500 nM.

For the compound `COc1cccc2cc(-c3nc4cc5c(cc4n3C)CCN(C[C@H](N)CF)C5=O)n(Cc3cccnn3)c12` [Example 126, (S)-6-(2-amino-3-fluoropropyl)-2-(7-methoxy-1-(pyridazin-3-ylmethyl)-1H-indol-2-yl)-1-methyl-1,6,7,8-tetrahydro-5H-imidazo[4,5-g]isoquinolin-5-one], the IC50 lay in the range of 101 to 500 nM. Regarding `COc1cccc2cc(-c3nc4cc5c(cc4n3C)CCN(C[C@H](N)CF)C5=O)n(Cc3cnccn3)c12` [Example 128, (S)-6-(2-amino-3-fluoropropyl)-2-(7-methoxy-1-(pyrazin-2-ylmethyl)-1H-indol-2-yl)-1-methyl-1,6,7,8-tetrahydro-5H-imidazo[4,5-g]isoquinolin-5-one], the IC50 lay in the range of 101 to 500 nM.

Turning to `COc1cccc2cc(-c3nc4cc5c(cc4n3C)CCN(C[C@H](N)CF)C5=O)n(Cc3nc(C)no3)c12` [Example 129, (S)-6-(2-amino-3-fluoropropyl)-2-(7-methoxy-1-((3-methyl-1,2,4-oxadiazol-5-yl)methyl)-1H-indol-2-yl)-1-methyl-1,6,7,8-tetrahydro-5H-imidazo[4,5-g]isoquinolin-5-one], the IC50 lay in the range of 101 to 500 nM. In the case of `COc1cccc2cc(-c3nc4cc5c(cc4n3C)CCN(C[C@H](N)CF)C5=O)n(C[C@H]3CCCO3)c12` [Example 132, 6-((S)-2-amino-3-fluoropropyl)-2-(7-methoxy-1-(((R)-tetrahydrofuran-2-yl)methyl)-1H-indol-2-yl)-1-methyl-1,6,7,8-tetrahydro-5H-imidazo[4,5-g]isoquinolin-5-one], the IC50 lay in the range of 101 to 500 nM. For `COc1cccc2cc(-c3nc4cc5c(cc4n3C)CCN(C[C@H](N)CF)C5=O)n(C[C@@H]3CCCO3)c12` [Example 133, 6-((S)-2-amino-3-fluoropropyl)-2-(7-methoxy-1-(((S)-tetrahydrofuran-2-yl)methyl)-1H-indol-2-yl)-1-methyl-1,6,7,8-tetrahydro-5H-imidazo[4,5-g]isoquinolin-5-one] the value was 101 to 500 nM. The value for `CCn1c(-c2nc3cc4c(cc3n2C)CCN(C[C@H](N)CF)C4=O)cc2ccccc21` [Example 134, (S)-6-(2-amino-3-fluoropropyl)-2-(1-ethyl-1H-indol-2-yl)-1-methyl-1,6,7,8-tetrahydro-5H-imidazo[4,5-g]isoquinolin-5-one] was more than 1000 nM; that for `COc1cccc2cc(-c3nc4cc5c(cc4n3C)CCN(C[C@H](N)CF)C5=O)n(Cc3cc(Cl)no3)c12` [Example 136, (S)-6-(2-amino-3-fluoropropyl)-2-(1-((3-chloroisoxazol-5-yl)methyl)-7-methoxy-1H-indol-2-yl)-1-methyl-1,6,7,8-tetrahydro-5H-imidazo[4,5-g]isoquinolin-5-one] was 101 to 500 nM. For the compound `COc1cccc2cc(-c3nc4cc5c(cc4n3C)CCN(C[C@H](N)CF)C5=O)n(Cc3cc(C#N)no3)c12` [Example 137, (S)-5-((2-(6-(2-amino-3-fluoropropyl)-1-methyl-5-oxo-5,6,7,8-tetrahydro-1H-imidazo[4,5-g]isoquinolin-2-yl)-7-methoxy-1H-indol-1-yl)methyl)isoxazole-3-carbonitrile], the IC50 fell in the range of 101 to 500 nM. For `COc1cccc2cc(-c3nc4cc5c(cc4n3C)CCN(C[C@H](N)CF)C5=O)n(Cc3ccoc3)c12` [Example 138, (S)-6-(2-amino-3-fluoropropyl)-2-(1-(furan-3-ylmethyl)-7-methoxy-1H-indol-2-yl)-1-methyl-1,6,7,8-tetrahydro-5H-imidazo[4,5-g]isoquinolin-5-one] the value was 101 to 500 nM; for `COc1cccc2cc(-c3nc4cc5c(cc4n3C)CCN(C[C@H](N)CF)C5=O)n(Cc3oncc3C)c12` [Example 139, (S)-6-(2-amino-3-fluoropropyl)-2-(7-methoxy-1-((4-methylisoxazol-5-yl)methyl)-1H-indol-2-yl)-1-methyl-1,6,7,8-tetrahydro-5H-imidazo[4,5-g]isoquinolin-5-one], 101 to 500 nM. For `COc1cccc2cc(-c3nc4cc5c(cc4n3C)CCN(C[C@H](N)CF)C5=O)n(Cc3ccc(C#N)o3)c12` [Example 140, (S)-5-((2-(6-(2-amino-3-fluoropropyl)-1-methyl-5-oxo-5,6,7,8-tetrahydro-1H-imidazo[4,5-g]isoquinolin-2-yl)-7-methoxy-1H-indol-1-yl)methyl)furan-2-carbonitrile] the value was 11 to 100 nM; for `COc1cccc2cc(-c3nc4cc5c(cc4n3C)CCN(C[C@H](N)CF)C5=O)n(Cc3ccco3)c12` [Example 141, (S)-6-(2-amino-3-fluoropropyl)-2-(1-(furan-2-ylmethyl)-7-methoxy-1H-indol-2-yl)-1-methyl-1,6,7,8-tetrahydro-5H-imidazo[4,5-g]isoquinolin-5-one], 101 to 500 nM. For `COc1cccc2cc(-c3nc4cc5c(cc4n3C)CCN(C[C@H](N)CF)C5=O)n(Cc3ocnc3C)c12` [Example 142, (S)-6-(2-amino-3-fluoropropyl)-2-(7-methoxy-1-((4-methyloxazol-5-yl)methyl)-1H-indol-2-yl)-1-methyl-1,6,7,8-tetrahydro-5H-imidazo[4,5-g]isoquinolin-5-one] the value was 101 to 500 nM; for `COc1cccc2cc(-c3nc4cc5c(cc4n3C)CCN(C[C@H](N)CF)C5=O)n(Cc3ccc(C)o3)c12` [Example 143, (S)-6-(2-amino-3-fluoropropyl)-2-(7-methoxy-1-((5-methylfuran-2-yl)methyl)-1H-indol-2-yl)-1-methyl-1,6,7,8-tetrahydro-5H-imidazo[4,5-g]isoquinolin-5-one], 101 to 500 nM. `COc1cccc2cc(-c3nc4cc5c(cc4n3C)CCN(C[C@H](N)CF)C5=O)n(Cc3ccnnc3)c12` [Example 144, (S)-6-(2-amino-3-fluoropropyl)-2-(7-methoxy-1-(pyridazin-4-ylmethyl)-1H-indol-2-yl)-1-methyl-1,6,7,8-tetrahydro-5H-imidazo[4,5-g]isoquinolin-5-one]: the IC50 fell in the range of 101 to 500 nM.
